Measured values published in article PMC2751792 (Journal of the American Chemical Society, 2009).
Square brackets hold non-standard residues; d marks the D form. Peptide text beside a SMILES is read from it. * marks the point of attachment. Asu = N[C@@H](CCCCCC(=O)O)C(=O)O; β3hL = CC(C)C[C@H](N)CC(=O)O; NHOH = ON*

Experiments:
[1] = tested on: HDAC activity in HeLa cell nuclear extract; test: Inhibition of HDAC activity in HeLa cell nuclear extract; assay type: biochemical, human; settings: for IC50: read-out: HDAC inhibition, IC50, HeLa, at least in duplicate; for HDAC inhibitory activity in HeLa cell nuclear extract, result in words: numbers only in Figures 2-4 (not readable)
[2] = molecular target: T1, recombinant human HDAC6 (Homo sapiens, UniProt Q9UBN7); test: Recombinant HDAC isoform inhibition, HDAC6; assay type: biochemical
T1 sequence (Q9UBN7 1-1215): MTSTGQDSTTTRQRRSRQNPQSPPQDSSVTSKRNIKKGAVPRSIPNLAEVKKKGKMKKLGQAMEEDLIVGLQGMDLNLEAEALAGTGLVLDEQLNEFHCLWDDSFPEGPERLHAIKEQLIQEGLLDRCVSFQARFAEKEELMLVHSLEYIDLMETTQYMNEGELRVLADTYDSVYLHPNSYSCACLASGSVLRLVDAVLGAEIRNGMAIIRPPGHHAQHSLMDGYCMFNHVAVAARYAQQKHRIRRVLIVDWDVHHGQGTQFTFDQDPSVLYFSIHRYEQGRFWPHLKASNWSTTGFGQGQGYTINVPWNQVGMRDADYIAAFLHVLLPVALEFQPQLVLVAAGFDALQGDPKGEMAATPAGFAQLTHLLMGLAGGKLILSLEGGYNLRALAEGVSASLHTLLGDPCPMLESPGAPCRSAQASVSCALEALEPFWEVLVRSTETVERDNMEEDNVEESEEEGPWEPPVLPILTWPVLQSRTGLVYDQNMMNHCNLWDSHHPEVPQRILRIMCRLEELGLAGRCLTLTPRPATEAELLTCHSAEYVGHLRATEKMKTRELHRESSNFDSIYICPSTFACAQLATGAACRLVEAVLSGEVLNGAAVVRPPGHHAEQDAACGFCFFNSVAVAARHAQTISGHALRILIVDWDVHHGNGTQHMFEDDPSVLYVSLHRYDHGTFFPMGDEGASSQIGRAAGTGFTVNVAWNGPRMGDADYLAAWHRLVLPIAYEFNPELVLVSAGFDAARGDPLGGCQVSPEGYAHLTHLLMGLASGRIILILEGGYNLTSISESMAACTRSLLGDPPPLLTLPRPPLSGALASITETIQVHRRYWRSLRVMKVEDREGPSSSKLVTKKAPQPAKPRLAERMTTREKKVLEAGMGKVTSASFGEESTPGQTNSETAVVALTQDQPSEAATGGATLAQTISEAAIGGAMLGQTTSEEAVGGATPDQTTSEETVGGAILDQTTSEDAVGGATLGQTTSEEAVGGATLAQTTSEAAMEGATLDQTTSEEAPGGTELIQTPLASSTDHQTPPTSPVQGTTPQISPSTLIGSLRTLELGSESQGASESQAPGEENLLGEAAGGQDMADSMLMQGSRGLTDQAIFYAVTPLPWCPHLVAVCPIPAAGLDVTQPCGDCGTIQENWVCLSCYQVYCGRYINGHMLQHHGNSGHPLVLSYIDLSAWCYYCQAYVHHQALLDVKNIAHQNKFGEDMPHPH

[3] = molecular target: recombinant human HDAC3 (Homo sapiens, UniProt O15379); test: Recombinant HDAC isoform inhibition, HDAC3; assay type: biochemical
Chain of recombinant human HDAC3 (O15379 whole entry, canonical isoform): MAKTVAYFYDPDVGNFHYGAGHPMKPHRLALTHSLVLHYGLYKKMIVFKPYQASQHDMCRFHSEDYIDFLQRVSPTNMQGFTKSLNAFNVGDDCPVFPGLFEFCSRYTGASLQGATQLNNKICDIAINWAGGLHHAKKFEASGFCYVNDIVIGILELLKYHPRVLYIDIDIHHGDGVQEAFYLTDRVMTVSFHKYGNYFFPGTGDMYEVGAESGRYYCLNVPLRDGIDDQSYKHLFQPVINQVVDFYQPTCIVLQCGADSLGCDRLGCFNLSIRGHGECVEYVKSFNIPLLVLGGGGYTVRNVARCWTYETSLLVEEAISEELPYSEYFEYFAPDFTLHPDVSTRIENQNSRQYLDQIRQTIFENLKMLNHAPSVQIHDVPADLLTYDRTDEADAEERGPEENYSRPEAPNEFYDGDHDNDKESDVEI
Chain of recombinant human HDAC3 (Q9Y618 395-489 partner limits assumed): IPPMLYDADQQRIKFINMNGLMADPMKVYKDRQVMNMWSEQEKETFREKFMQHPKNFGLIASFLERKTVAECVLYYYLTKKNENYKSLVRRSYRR

[4] = molecular target: recombinant human HDAC1 (Homo sapiens, UniProt Q13547); test: Recombinant HDAC isoform inhibition, HDAC1; assay type: biochemical
Chain of recombinant human HDAC1 (Q13547 whole entry, canonical isoform): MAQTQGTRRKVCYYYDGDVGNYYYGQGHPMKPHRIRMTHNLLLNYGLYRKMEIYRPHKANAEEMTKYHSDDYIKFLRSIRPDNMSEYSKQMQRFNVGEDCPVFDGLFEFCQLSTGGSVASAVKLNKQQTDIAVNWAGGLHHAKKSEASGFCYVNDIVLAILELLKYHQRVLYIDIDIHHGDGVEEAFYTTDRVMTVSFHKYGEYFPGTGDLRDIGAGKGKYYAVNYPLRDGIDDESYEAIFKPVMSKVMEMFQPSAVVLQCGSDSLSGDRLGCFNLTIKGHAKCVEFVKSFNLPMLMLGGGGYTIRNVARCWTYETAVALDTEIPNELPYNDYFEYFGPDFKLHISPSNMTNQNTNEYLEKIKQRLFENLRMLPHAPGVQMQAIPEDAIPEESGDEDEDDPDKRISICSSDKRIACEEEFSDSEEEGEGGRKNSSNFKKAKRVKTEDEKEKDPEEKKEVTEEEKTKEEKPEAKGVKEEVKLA

[5] = molecular target: T2, recombinant human HDAC7 (Homo sapiens, UniProt Q8WUI4); test: Recombinant HDAC isoform inhibition, HDAC7; assay type: biochemical
T2 sequence (Q8WUI4 1-952): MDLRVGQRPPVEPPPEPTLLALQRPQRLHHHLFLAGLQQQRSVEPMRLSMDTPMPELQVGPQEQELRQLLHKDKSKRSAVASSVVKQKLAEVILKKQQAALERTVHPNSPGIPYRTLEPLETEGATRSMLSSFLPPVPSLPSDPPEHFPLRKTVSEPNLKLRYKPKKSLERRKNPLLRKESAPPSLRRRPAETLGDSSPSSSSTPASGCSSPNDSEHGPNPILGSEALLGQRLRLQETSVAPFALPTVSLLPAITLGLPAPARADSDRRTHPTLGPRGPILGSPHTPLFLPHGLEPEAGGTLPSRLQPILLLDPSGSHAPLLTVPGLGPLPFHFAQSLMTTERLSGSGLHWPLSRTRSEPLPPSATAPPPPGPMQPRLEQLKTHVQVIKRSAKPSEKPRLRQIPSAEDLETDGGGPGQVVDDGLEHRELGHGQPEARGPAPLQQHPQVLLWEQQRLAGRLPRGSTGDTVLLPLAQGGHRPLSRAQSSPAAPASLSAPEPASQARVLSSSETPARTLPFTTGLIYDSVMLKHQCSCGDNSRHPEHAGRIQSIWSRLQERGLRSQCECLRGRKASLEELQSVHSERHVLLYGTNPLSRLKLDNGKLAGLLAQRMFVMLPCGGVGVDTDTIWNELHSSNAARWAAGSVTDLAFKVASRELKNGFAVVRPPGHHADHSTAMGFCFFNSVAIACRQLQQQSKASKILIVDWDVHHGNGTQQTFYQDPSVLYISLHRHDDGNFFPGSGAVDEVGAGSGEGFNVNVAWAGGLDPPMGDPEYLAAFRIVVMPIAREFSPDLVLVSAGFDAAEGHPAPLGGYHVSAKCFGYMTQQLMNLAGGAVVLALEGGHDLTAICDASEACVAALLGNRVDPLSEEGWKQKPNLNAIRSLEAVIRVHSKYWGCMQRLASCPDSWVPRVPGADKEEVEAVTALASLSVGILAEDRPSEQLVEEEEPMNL

[6] = molecular target: recombinant human HDAC4 (Homo sapiens, UniProt P56524); test: Recombinant HDAC isoform inhibition, HDAC4; assay type: biochemical
Chain of recombinant human HDAC4 (P56524 whole entry, canonical isoform): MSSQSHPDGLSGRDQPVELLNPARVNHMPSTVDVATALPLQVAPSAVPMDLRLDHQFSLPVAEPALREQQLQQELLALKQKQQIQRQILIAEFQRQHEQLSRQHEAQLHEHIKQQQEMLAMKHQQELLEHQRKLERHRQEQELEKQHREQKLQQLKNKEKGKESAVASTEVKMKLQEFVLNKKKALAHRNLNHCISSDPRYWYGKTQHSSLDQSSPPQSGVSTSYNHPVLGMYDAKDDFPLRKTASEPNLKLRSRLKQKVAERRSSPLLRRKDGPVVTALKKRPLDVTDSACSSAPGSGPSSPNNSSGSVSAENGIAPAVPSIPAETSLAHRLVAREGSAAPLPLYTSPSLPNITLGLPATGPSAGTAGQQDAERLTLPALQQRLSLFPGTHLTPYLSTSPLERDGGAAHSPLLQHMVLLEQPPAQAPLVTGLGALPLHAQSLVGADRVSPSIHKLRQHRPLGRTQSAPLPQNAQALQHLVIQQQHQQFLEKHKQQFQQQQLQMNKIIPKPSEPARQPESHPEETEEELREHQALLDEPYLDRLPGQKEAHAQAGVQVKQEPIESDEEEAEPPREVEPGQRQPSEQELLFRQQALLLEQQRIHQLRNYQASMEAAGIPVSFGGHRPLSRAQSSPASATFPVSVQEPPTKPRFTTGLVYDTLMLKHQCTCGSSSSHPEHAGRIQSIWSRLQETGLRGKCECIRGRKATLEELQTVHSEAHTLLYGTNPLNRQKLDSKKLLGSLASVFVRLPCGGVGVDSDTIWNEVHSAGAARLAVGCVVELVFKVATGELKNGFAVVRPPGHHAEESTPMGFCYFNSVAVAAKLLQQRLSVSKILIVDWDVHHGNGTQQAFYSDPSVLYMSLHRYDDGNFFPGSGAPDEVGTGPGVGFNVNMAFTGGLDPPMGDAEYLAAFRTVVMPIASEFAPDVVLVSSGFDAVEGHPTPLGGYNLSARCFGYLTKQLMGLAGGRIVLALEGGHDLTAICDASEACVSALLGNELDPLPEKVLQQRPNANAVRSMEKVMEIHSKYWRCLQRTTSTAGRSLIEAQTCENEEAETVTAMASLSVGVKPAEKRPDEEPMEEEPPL

[7] = molecular target: T3, recombinant human HDAC10 (Homo sapiens, UniProt Q969S8); test: Recombinant HDAC isoform inhibition, HDAC10; assay type: biochemical
T3 sequence (Q969S8 1-669): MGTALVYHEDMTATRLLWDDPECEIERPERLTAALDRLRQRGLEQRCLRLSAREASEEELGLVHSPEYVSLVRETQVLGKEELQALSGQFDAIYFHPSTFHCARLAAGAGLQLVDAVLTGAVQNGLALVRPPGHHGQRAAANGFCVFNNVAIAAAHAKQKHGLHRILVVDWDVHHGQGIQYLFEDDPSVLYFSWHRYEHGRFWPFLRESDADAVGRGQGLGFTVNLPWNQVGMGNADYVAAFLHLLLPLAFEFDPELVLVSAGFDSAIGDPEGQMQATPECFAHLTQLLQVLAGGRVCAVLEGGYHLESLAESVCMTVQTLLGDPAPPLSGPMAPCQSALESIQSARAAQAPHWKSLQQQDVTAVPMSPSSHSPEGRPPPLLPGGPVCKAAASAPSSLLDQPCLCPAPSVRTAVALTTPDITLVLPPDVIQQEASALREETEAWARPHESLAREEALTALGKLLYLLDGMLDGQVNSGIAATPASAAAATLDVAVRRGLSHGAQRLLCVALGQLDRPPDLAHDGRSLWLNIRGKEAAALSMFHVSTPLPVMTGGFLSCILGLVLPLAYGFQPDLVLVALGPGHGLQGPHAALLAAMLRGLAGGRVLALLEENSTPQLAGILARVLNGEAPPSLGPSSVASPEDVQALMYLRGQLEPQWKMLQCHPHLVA

[8] = molecular target: recombinant human HDAC9 (Homo sapiens, UniProt Q9UKV0); test: Recombinant HDAC isoform inhibition, HDAC9; assay type: biochemical
Chain of recombinant human HDAC9 (Q9UKV0 whole entry, canonical isoform): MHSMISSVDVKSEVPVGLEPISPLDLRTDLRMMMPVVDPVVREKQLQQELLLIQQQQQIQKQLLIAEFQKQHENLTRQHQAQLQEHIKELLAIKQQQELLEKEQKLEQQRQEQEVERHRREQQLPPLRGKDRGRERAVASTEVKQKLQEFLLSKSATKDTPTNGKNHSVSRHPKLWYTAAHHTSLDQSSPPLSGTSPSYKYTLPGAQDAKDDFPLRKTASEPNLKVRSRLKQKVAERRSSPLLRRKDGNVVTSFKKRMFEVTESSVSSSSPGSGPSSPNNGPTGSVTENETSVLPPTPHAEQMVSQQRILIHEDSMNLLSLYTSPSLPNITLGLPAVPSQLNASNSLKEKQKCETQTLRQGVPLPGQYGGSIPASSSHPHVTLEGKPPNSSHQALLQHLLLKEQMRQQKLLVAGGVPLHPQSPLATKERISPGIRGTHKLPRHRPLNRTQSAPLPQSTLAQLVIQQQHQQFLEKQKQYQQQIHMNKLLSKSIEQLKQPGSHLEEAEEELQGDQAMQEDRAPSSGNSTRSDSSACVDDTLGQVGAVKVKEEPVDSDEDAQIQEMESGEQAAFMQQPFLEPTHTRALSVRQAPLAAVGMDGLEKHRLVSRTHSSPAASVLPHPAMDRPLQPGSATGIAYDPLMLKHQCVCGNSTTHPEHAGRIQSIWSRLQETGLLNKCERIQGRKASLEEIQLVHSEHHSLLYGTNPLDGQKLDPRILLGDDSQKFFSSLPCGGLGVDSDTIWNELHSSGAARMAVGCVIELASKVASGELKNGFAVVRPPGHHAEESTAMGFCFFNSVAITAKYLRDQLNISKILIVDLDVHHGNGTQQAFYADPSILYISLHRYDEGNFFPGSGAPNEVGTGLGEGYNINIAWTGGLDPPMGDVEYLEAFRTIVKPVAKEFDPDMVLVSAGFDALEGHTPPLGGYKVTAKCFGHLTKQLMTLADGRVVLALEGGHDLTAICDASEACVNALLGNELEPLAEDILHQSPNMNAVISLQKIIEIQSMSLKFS

[9] = molecular target: recombinant human HDAC5 (Homo sapiens, UniProt Q9UQL6); test: Recombinant HDAC isoform inhibition, HDAC5; assay type: biochemical
Chain of recombinant human HDAC5 (Q9UQL6 whole entry, canonical isoform): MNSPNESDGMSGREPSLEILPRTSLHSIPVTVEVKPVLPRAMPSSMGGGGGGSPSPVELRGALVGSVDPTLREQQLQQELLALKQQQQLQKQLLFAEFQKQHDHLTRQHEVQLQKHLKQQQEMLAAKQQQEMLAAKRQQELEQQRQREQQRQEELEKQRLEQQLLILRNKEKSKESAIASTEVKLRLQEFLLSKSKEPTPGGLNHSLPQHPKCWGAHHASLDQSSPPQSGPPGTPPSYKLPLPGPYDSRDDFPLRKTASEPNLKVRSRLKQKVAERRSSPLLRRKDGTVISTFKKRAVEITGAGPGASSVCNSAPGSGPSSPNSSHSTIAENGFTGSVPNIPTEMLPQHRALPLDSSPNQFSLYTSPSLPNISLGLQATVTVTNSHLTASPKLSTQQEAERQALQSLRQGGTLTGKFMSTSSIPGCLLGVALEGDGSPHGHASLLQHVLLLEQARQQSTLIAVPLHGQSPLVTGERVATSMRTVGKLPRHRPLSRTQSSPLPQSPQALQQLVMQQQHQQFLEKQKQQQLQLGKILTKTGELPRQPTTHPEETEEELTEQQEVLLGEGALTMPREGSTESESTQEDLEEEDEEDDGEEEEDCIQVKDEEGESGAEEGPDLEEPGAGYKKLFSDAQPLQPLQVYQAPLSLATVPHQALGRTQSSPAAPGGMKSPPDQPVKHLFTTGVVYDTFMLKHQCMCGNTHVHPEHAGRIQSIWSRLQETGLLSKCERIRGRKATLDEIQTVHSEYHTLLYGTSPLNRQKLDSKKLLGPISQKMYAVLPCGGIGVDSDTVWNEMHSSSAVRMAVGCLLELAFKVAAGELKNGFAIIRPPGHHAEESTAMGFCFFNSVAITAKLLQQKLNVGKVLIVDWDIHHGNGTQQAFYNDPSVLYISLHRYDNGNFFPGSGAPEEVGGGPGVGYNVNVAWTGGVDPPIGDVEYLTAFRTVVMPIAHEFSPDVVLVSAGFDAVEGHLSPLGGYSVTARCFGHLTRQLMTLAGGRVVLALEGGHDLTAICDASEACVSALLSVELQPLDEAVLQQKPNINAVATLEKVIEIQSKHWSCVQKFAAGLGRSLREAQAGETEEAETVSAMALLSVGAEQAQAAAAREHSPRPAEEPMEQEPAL

[10] = molecular target: recombinant human HDAC2 (Homo sapiens, UniProt Q92769); test: Recombinant HDAC isoform inhibition, HDAC2; assay type: biochemical
Chain of recombinant human HDAC2 (Q92769 whole entry, canonical isoform): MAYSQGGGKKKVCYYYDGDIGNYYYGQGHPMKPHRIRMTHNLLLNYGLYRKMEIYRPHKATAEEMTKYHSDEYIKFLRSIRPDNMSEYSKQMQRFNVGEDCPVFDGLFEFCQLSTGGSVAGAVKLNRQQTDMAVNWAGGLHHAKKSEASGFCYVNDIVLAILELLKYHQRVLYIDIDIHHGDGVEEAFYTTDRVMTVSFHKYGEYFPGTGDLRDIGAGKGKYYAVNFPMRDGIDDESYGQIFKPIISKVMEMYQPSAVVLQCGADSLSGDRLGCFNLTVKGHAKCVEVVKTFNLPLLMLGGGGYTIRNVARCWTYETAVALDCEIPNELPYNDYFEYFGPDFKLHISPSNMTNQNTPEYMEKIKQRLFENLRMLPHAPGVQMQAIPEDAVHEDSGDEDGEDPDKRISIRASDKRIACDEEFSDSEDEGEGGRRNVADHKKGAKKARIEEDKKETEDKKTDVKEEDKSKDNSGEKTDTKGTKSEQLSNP

SMILES | Increase of potency relative to the parent ethylketones 3 and 4 [1] | IC50 [1] [nM] | IC50 [2] [nM] | IC50 [3] [nM] | IC50 [4] [nM] | IC50 [5] [nM] | IC50 [6] [nM] | IC50 [7] [nM] | IC50 [8] [nM] | IC50 [9] [nM] | IC50 [10] [nM] | HDAC inhibitory activity in HeLa cell nuclear extract, result in words [1]
CC(C)C[C@H]1CC(=O)N2CCC[C@H]2C(=O)N[C@@H](CCCCCC(=O)NO)C(=O)N[C@@H](Cc2c[nH]c3ccccc23)C(=O)N1 [4a] (cyclo([Asu](NHOH)W[β3hL]P)) | at least 10 fold | < 1 | 35 | 35 | 0.6 | > 10000 | > 10000 | – | – | – | – | –
CC(C)C[C@H]1CC(=O)N[C@@H](C)C(=O)N[C@@H](CCCCCC(=O)NO)C(=O)N[C@@H](Cc2c[nH]c3ccccc23)C(=O)N1 [3a] (cyclo([Asu](NHOH)W[β3hL]A)) | – | – | – | – | – | > 10000 | > 10000 | 0.2 | 0.6 | 2.5 | – | –
CCC(=O)CCCCC[C@@H]1NC(=O)[C@H](C)NC(=O)C[C@H](CC(C)C)NC(=O)[C@H](Cc2c[nH]c3ccccc23)NC1=O [compound 3] | – | 19 | – | – | 35 | > 10000 | > 10000 | 20 | 30 | 70 | 30 | –
CCC(=O)CCCCC[C@@H]1NC(=O)[C@H](C)N(C)C(=O)C[C@H](CC(C)C)NC(=O)[C@H](Cc2c[nH]c3ccccc23)NC1=O [3h] | – | – | > 10000 | – | – | > 10000 | > 10000 | 28 | 25 | 60 | – | modest loss of potency
CCC(=O)CCCCC[C@@H]1NC(=O)[C@@H]2CCCN2C(=O)C[C@H](CC(C)C)NC(=O)[C@H](Cc2c[nH]c3ccccc23)NC1=O [compound 4] | – | 9 | – | – | – | > 10000 | > 10000 | – | 22 | 50 | – | low nanomolar IC50 values comparable to that of apicidin
CC(C)C[C@H]1CC(=O)N[C@@H](C)C(=O)N[C@@H](CCCCCC(=O)O)C(=O)N[C@@H](Cc2c[nH]c3ccccc23)C(=O)N1 [3b] (cyclo([Asu]W[β3hL]A)) | – | – | – | – | – | > 10000 | > 10000 | 280 | 550 | 700 | – | significantly decreased potency
CCC(=O)CCCCC[C@@H]1NC(=O)C[C@H](C)NC(=O)C[C@H](CC(C)C)NC(=O)[C@H](Cc2c[nH]c3ccccc23)NC1=O [compound 5] | – | – | – | – | – | – | – | – | – | – | – | high nanomolar activity
